According to paper PMC4849550 (ACS chemical biology, 2016):

Biological target: Csd4 (Helicobacter pylori, UniProt B5ZAD9)
Assay: crystal structure at […] Å
Assay type: biochemical

- Ki: 1.5 ± 0.3 µM
SMILES: CC(=O)N[C@H](CCP(=O)(O)CC(CCC[C@@H](N)C(=O)O)C(=O)O)C(=O)O (mixture of isomers) [compound 1, inhibitor 1]
